# How the values were obtained:
# hAChE = hAChE (Homo sapiens, UniProt P22303); assay: ChE IC50 determination, method of Ellman, hAChE; format: biochemical; conditions: for IC50 / remaining activity at 100 µM: after 5 min preincubation; for IC50: read-out: hAChE IC50±SD; for hAChE time-dependency observed: Yes/No: pre-incubation time varied; for remaining activity at 100 µM: residual activity at 100 μmol/L, read-out: hAChE RA±SD (residual activity)
# Method: (§1) The inhibitory potencies of the compounds against the ChEs were determined using the method of Ellman following the procedure described previously. Briefly, compound stock solutions in DMSO were incubated with Ellman’s reagent and ChEs (final concentrations: 370 μmol/L Ellman’s reagent, approximately 1 nmol/L or 50 pmol/L hBChE or hAChE, respectively) in 0.1 mol/L sodium phosphate pH 8.0 for 5 min at 20 °C. For time-dependency measurements, the pre-incubation time was varied (1, 5, 15, 30 or 60 min). The reactions were started by the addition of the substrate (final concentration, 500 μmol/L butyrylthiocholine iodide or acetylthiocholine iodide for hBChE and hAChE, respectively). The final content of DMSO was always 1%. The increase in absorbance at 412 nm was monitored for 2 min using a 96-well microplate reader (Synergy HT, BioTek Instruments, VT, USA). The initial velocities in the presence (vi) and absence (v0) of the test compounds were calculated. The inhibitory potencies were expressed as the residual activities, according to Eq. (1):(1) RA = vi / v0
# (§2) For IC50 determinations, at least seven different concentrations for each compound were used. The IC50 values were obtained by plotting the residual ChE activities against the applied inhibitor concentrations, with the experimental data fitted to a four-parameter logistic function (GraphPad Prism 9.4). Tacrine and donepezil were used as positive controls.
# [1] = system: caspase-3 activity in SH-SY5Y cells; assay: Caspase-3 activity in lysates of Aβ1–42-treated cells; format: cell-based, human; conditions: 5 μmol/L compound, 5 μmol/L fibrillar Aβ1–42, 24 h
# Method: (§3) Cell culture and treatments The human neuroblastoma SH-SY5Y cell line was purchased from American Type Culture Collection (Manassas, VA, USA). Cells were cultured in Advanced Dulbecco’s modified Eagle’s medium (Gibco, Thermo Fisher Scientific, Waltham, MA, USA) supplemented with 10% fetal bovine serum (FBS, Gibco), 2 mmol/L L-glutamine, 50 U/mL penicillin and 50 μg/mL streptomycin (Sigma, St. Louis, MO, USA) in a humidified atmosphere of 95% air and 5% CO2 at 37 °C, and grown to 80% confluence. Prior to cell treatment, complete medium was replaced with serum-reduced medium (i.e., with 2% FBS). Compounds were prepared as a stock solution of 50 mmol/L in DMSO.
# Caspase-3 activity and Western blot analysis The activity of caspases-3 was determined in total cell lysates of the SH-SY5Y cells treated as described. […] Following cell treatment for 24 h, cell lysates were prepared, and the caspase-3 activity was assessed using the fluorescent peptide substrate N-acetyl-L-α-aspartyl-L-α-glutamyl-L-valyl-N-[2-oxo-4-(trifluoromethyl)-2H-1-benzopyran-7-yl]-L-α-asparagine (Ac-DEVD-AFC; Bachem). […] Immediately after the addition of the substrate, fluorescence was monitored continuously for 30 min at an excitation wavelength of 405 nm and an emission wavelength of 535 nm using a Tecan Safire[2] fluorescence microplate reader. […]
# Aqueous stability (UPLC) = format: physicochemical; conditions: for t1/2 in aqueous solution / k: PBS:EtOH = 80:20, 10 mmol/L; for k: pseudo-first order; for half-life: buffer, PBS:EtOH = 80:20, calculated half-lives only approximates, read-out: t1/2 in aqueous solution (converted)
# Method: For the aqueous stability determination, UPLC analyses were performed as described under Chemistry–General Information. The method used a Waters Acquity UPLC® HSS C18 SB column (2.1 mm× 50 mm, 1.8 μm) thermostated at 40 °C, with: injection volume, 5 μL; flow rate, 0.4 mL/min; detector λ, 220 nm; mobile phase A: 0.1% TFA (v/v) in MilliQ water; mobile phase B: MeCN. Gradient: 0–5 min, 20%–100% B; 5–6 min, 20% B.
# Compound stock solutions (100 mmol/L) were prepared in absolute EtOH, while the internal standard (caffeine) was dissolved in PBS (0.1 mg/mL). The aqueous stability solutions were prepared by mixing 1200 μL PBS with internal standard, 150 μL absolute EtOH, and 150 μL compound stock solution in a HPLC vial to give 10 mmol/L compound concentration in PBS/EtOH = 80:20, which was injected immediately and then at hourly intervals for 48 h. The analyte AUCs were normalized on internal standard AUCs and compared with the timepoint zero. For the rate calculation, pseudo-first order kinetics were assumed.
# For investigation of compound 8 stability in an aqueous medium, its stock solution (10,000 mg/L) was prepared in EtOH. 15 μL of the stock solution was mixed with 60 μL of caffeine (2500 mg/L in EtOH) and 1425 μL of the respective aqueous solution/buffer to achieve final concentration of 100 mg/L with 5% ethanol content. The UPLC analysis was carried as described above.
# hBChE [2] = target: T1, hBChE (Homo sapiens, UniProt P06276); assay: hBChE binding kinetics: carbamoylation and decarbamoylation, initial velocity measurements; format: biochemical
# Method: The progress curves for the time courses of product formation for the hydrolysis of butyrylthiocholine iodide were measured on an Agilent Cary 3500 UV–VIS spectrophotometer with Compact Peltier (thermostated at 25 °C) at 412 nm using a 0.6 mL cuvette (optical path–0.5 cm). 30 mmol/L Tris buffer pH 7.0 with 1 mg/mL BSA and 0.02% NaN3 was used and all dilutions were done in glass vessels (note: dilute hBChE solutions rapidly lose activity, presumably due to adsorption to plastic, preventing meaningful decarbamoylation assays. In our hands, under the above conditions only, the diluted and stock solutions of hBChE were stable for at least a month at room temperature.). Total volume in the cuvette was always 500 μL, and enzyme solutions that gave upon dilution v0 = (dA/dt) ≈ 0.5 (for carbamoylation) and ≈ 1 for (for decarbamoylation) were used. For carbamoylation experiments, 0.5–1 μL of enzyme stock, 5 μL of compound solution, and 484 μL of buffer were preincubated for the specified time, then 10 μL of the mixture of 25 mmol/L Ellman’s reagent (DTNB) and 20 mmol/L butyrylthiocholine (large excess to prevent substrate depletion) were added, quickly mixed, and measurement started. […] The data analysis followed the literature[63]^,[98].
# SH-SY5Y cells = assay: Neuroprotection assay against Aβ1–42, 7-AAD flow cytometry; format: cell-based, human; conditions: 5 μmol/L compound, 5 μmol/L fibrillar Aβ1–42, 48 h
# Method: as §3
# Neuroprotection assay The neuroprotective effect of compounds on cytotoxic effect of Aβ1–42 was determined with the fluorescent intercalator 7-aminoactinomycin D (7-AAD) assessed by flow cytometry. Prior to cell treatment, the peptide Aβ1–42 (Merck Millipore, Darmstadt, Germany) was dissolved in DMSO at a concentration of 1 mmol/L and was incubated at 100 μmol/L in 1 mol/L HCl at 37 °C for 24 h to induce Aβ aggregation. […] Cells were then analysed for cytotoxicity by flow cytometry on Attune NxT flow cytometer (Thermo Fisher Scientific). The percentage of 7AAD positive (7AADpos) cells was evaluated using FlowJo software (FlowJo, LLC., Ashland, OR, USA).
# hBChE [3] = target: T1, hBChE; assay: ChE IC50 determination, method of Ellman, hBChE; format: biochemical; conditions: for IC50 / remaining activity at 100 µM: after 5 min preincubation; for IC50: read-out: hBChE IC50±SD; for hBChE time-dependency observed: Yes/No: pre-incubation time varied; for remaining activity at 100 µM: residual activity at 100 μmol/L, read-out: hBChE RA±SD (residual activity); for ChE inhibition of the leaving groups: ChEs (hBChE and hAChE)
# Method: as §1, §2
# Sequence of hAChE (P22303 32-614): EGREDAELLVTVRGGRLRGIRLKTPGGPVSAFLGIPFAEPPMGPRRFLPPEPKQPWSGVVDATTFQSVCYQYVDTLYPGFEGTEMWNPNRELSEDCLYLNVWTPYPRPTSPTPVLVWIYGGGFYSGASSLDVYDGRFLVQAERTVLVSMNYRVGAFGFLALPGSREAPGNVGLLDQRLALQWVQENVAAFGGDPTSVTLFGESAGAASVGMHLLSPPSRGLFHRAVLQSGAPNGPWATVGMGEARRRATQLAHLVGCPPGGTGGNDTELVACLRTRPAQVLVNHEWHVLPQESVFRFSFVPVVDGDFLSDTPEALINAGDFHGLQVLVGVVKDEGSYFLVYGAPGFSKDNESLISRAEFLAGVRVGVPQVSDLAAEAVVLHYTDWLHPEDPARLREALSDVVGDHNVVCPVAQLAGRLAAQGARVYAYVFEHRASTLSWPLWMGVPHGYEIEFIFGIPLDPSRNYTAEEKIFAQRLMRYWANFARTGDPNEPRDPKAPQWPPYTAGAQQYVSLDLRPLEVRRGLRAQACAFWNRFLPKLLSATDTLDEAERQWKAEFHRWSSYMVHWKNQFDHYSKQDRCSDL
# T1 sequence (P06276 29-602): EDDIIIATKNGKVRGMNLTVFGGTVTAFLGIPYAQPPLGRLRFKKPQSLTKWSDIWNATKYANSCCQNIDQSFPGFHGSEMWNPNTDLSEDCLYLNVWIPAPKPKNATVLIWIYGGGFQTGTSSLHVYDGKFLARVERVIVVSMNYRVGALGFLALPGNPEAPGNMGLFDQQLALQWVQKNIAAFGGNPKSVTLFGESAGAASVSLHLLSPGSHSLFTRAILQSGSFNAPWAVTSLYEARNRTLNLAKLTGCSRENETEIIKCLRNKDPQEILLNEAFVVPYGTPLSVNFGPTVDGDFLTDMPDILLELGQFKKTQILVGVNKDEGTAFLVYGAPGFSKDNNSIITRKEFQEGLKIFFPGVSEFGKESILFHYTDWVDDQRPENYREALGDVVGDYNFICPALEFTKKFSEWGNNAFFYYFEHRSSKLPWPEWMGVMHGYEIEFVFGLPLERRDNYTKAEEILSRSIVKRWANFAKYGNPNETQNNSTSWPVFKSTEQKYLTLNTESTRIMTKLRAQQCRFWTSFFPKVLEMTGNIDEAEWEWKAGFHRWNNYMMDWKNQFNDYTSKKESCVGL
SMILES,IC50 (hAChE) [µM],hAChE time-dependency observed: Yes/No (hAChE),IC50 (hBChE [3]) [nM],hBChE time-dependency observed: Yes/No (hBChE [3]),remaining activity at 100 µM (hAChE) [%],remaining activity at 100 µM (hBChE [3]) [%],ChE inhibition of the leaving groups (hBChE [3]),k (Aqueous stability (UPLC)) [h–1],further results
"CCC1(c2cn(C(=O)N(C)C)cn2)Cc2ccccc2C1 [Compound 6, 4-(2-Ethylindan-2-yl)-N,N-dimethyl-1H-imidazole-1-carboxamide]",32.8,Yes,14 ± 2,Yes,–,–,–,–,"caspase-3 activity after Aβ1–42 treatment [1]: significant reduction; t1/2 in aqueous solution (Aqueous stability (UPLC); during 48 h): stable; Ki (hBChE [2]): 116 ± 3 nM; kcarb, carbamoylation (hBChE [2]; 25 °C): 9.0±2.5 min^–1; kdecarb, decarbamoylation (hBChE [2]; 25 °C): 3.59±0.28 ×10^–2 h^–1; t1/2, decarbamoylation (hBChE [2]; 25 °C): 19.3 ± 1.5 h; ΔG25°C‡, carbamoylation (hBChE [2]; 25 °C): 18.6 ± 0.2 kcal/mol; 7-AAD-positive cells after Aβ1–42 treatment (SH-SY5Y cells): significant reduction; selectivity for hBChE over hAChE (hBChE [3]): 2500 fold"
"CCC1(c2cn(C(=O)N3CCCCC3)cn2)Cc2ccccc2C1 [Compound 9, (4-(2-Ethylindan-2-yl)-1H-imidazol-1-yl)(piperidin-1-yl)methanone]",7.55 ± 2.14,Yes,2.5 ± 2,Yes,–,–,–,–,–
"CCC1(c2cn(C(=O)N(C)Cc3ccccc3)cn2)Cc2ccccc2C1 [Compound 10, N-Benzyl-4-(2-ethylindan-2-yl)-N-methyl-1H-imidazole-1-carboxamide]",–,Yes,53 ± 10,Yes,34,–,–,–,–
"CCC1(c2cn(C(=S)N(C)C)cn2)Cc2ccccc2C1 [Compound 11, 4-(2-Ethylindan-2-yl)-N,N-dimethyl-1H-imidazole-1-carbothioamide]",–,–,–,Yes,69,49,–,–,–
"CCC1(c2cncn2C)Cc2ccccc2C1 [Compound 12, 5-(2-Ethylindan-2-yl)-1-methyl-1H-imidazole]",–,–,–,–,74,67,ineffective,–,–
"CCC1(c2cn(C(=O)N(C)C)c[n+]2C)Cc2ccccc2C1.O=S(=O)([O-])C(F)(F)F [Compound 13, 1-(Dimethylcarbamoyl)-4-(2-ethylindan-2-yl)-3-methyl-1H-imidazol-3-ium trifluoromethanesulfonate]",3.19 ± 0.4,Yes,8.4 ± 4.6,Yes,–,–,–,0.05236,t1/2 in aqueous solution (Aqueous stability (UPLC)): 13.2 h
"CCC1(c2cn[nH]n2)Cc2ccccc2C1 [Compound 14, 4-(2-Ethylindan-2-yl)-2H-1,2,3-triazole]",–,–,–,–,85,82,ineffective,–,–
"CCC1(c2cnn(C(=O)N(C)C)n2)Cc2ccccc2C1 [Compound 15, 4-(2-Ethylindan-2-yl)-N,N-dimethyl-2H-1,2,3-triazole-2-carboxamide]",0.234 ± 0.046,Yes,1.9 ± 0.5,Yes,–,–,–,0.000982,half-life (Aqueous stability (UPLC)): ~29 days
"CCC1(c2nc[nH]n2)Cc2ccccc2C1 [Compound 16, 3-(2-Ethylindan-2-yl)-1H-1,2,4-triazole]",–,–,–,–,83,89,ineffective,–,–
"CCC1(c2ncn(C(=O)N(C)C)n2)Cc2ccccc2C1 [Compound 17, 3-(2-Ethylindan-2-yl)-N,N-dimethyl-1H-1,2,4-triazole-1-carboxamide]",2.93 ± 1.28,Yes,5 ± 1.2,Yes,–,–,–,0.000628,half-life (Aqueous stability (UPLC)): ~46 days

# From paper PMC12491715 (Acta Pharmaceutica Sinica. B, 2025)
